One molecule from US20050245399A1, “Pyrazole derivatives as herbicidal compositions containing them” (ISHIHARA SANGYO KAISHA, LTD., priority 2004, published 2005) can be followed below.

In one test the test system is barnyardgrass (Echinochloa crus-galli L.): ECHCG. The test can be described thus: Test Example 1 pre-emergence herbicidal activity, ECHCG. The note with it: Rate 63 g a.i./ha, visually observed 20th to 23rd day after application. Type of test: in vivo. The gist of the method: (§1)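 Percent growth control, rated visually 20–23 d after a pre-emergence spray applied 1 d post-sowing; compound formulated as WP or EC in 500 L/ha water at a predetermined a.i. amount.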
Regarding `COc1c(Cl)cc(F)c(-c2nn(C)c(OC(F)F)c2Cl)c1NC(=O)COc1ccc(Cl)cc1` [Compound 1-35], the “Pre-emergence Herbicidal Activity ECHCG (growth controlling degree)” value is on record as 20%.

In the next test the test system is crabgrass (Digitaria sanguinalis L.): DIGSA. Nature of the test: Test Example 1 pre-emergence herbicidal activity, DIGSA. The test is classed as in vivo. The following applies: Rate 63 g a.i./ha, visually observed 20th to 23rd day after application. In outline:
as §1
Take `COc1c(Cl)cc(F)c(-c2nn(C)c(OC(F)F)c2Cl)c1NC(=O)COc1ccc(Cl)cc1` [Compound 1-35]: the “Pre-emergence Herbicidal Activity DIGSP (growth controlling degree)” value came to 50%.

In a further test the test system is green foxtail (Setaria viridis L.): SETVI. Nature of the test: Test Example 1 pre-emergence herbicidal activity, SETVI. Type of test: in vivo. The note with it: Rate 63 g a.i./ha, visually observed 20th to 23rd day after application. In outline:
as §1
Consider `COc1c(Cl)cc(F)c(-c2nn(C)c(OC(F)F)c2Cl)c1NC(=O)COc1ccc(Cl)cc1` [Compound 1-35], for which the “Pre-emergence Herbicidal Activity SETVI (growth controlling degree)” value is 80%.

Another test concerns redroot pigweed (Amaranthus retroflexus L.): AMARE. Nature of the test: Test Example 1 pre-emergence herbicidal activity, AMARE. The test is classed as in vivo. The following applies: Rate 63 g a.i./ha, visually observed 20th to 23rd day after application. In outline:
as §1
As to `COc1c(Cl)cc(F)c(-c2nn(C)c(OC(F)F)c2Cl)c1NC(=O)COc1ccc(Cl)cc1` [Compound 1-35], the “Pre-emergence Herbicidal Activity AMARE (growth controlling degree)” value is on record as 100%.

The next test relates to prickly sida (Sida spinosa L.): SEDSP. Nature of the test: Test Example 1 pre-emergence herbicidal activity, SIDSP. The note with it: Rate 63 g a.i./ha, visually observed 20th to 23rd day after application. Type of test: in vivo. In outline:
as §1
For `COc1c(Cl)cc(F)c(-c2nn(C)c(OC(F)F)c2Cl)c1NC(=O)COc1ccc(Cl)cc1` [Compound 1-35], the “Pre-emergence Herbicidal Activity SIDSP (growth controlling degree)” value is 20%.

In a further test the test system is velvetleaf (Abutilon theophrasti): ABUTH. Nature of the test: Test Example 1 pre-emergence herbicidal activity, ABUTH. Type of test: in vivo. The following applies: Rate 63 g a.i./ha, visually observed 20th to 23rd day after application. The gist of the method: as §1
For the molecule `COc1c(Cl)cc(F)c(-c2nn(C)c(OC(F)F)c2Cl)c1NC(=O)COc1ccc(Cl)cc1` [Compound 1-35], the “Pre-emergence Herbicidal Activity ABUTH (growth controlling degree)” value is 20%.

A further test has as its system rice (Oryza sativa L.): ORYSA. Nature of the test: Test Example 1 pre-emergence herbicidal activity, ORYSA. The following applies: Rate 63 g a.i./ha, visually observed 20th to 23rd day after application. The test is classed as in vivo. In outline: as §1
In the case of `COc1c(Cl)cc(F)c(-c2nn(C)c(OC(F)F)c2Cl)c1NC(=O)COc1ccc(Cl)cc1` [Compound 1-35], the “Pre-emergence Herbicidal Activity ORYSA (growth controlling degree)” value is 40%.

A further test relates to wheat (Triticum aestivum L.): TRZAX. The test can be described thus: Test Example 1 pre-emergence herbicidal activity, TRZAX. The test is classed as in vivo. The note with it: Rate 63 g a.i./ha, visually observed 20th to 23rd day after application. The gist of the method:
as §1
As to `COc1c(Cl)cc(F)c(-c2nn(C)c(OC(F)F)c2Cl)c1NC(=O)COc1ccc(Cl)cc1` [Compound 1-35], the “Pre-emergence Herbicidal Activity TRZAX (growth controlling degree)” value was 20%.

Another test relates to corn (Zea mays L.): ZEAMX. The test can be described thus: Test Example 1 pre-emergence herbicidal activity, ZEAMX. Type of test: in vivo. The following applies: Rate 63 g a.i./ha, visually observed 20th to 23rd day after application. The gist of the method: as §1
`COc1c(Cl)cc(F)c(-c2nn(C)c(OC(F)F)c2Cl)c1NC(=O)COc1ccc(Cl)cc1` [Compound 1-35]: the “Pre-emergence Herbicidal Activity ZEAMX (growth controlling degree)” value is 0%.

Another test concerns soybean (Glycine max Merr.): GLXMA. Nature of the test: Test Example 1 pre-emergence herbicidal activity, GLXMA. Type of test: in vivo. The note with it: Rate 63 g a.i./ha, visually observed 20th to 23rd day after application. In outline: as §1
Take `COc1c(Cl)cc(F)c(-c2nn(C)c(OC(F)F)c2Cl)c1NC(=O)COc1ccc(Cl)cc1` [Compound 1-35]: the “Pre-emergence Herbicidal Activity GLXMA (growth controlling degree)” value amounted to 0%.

For a further test, the system named is barnyardgrass (Echinochloa crus-galli L.), ECHCG. The test can be described thus: Test Example 2 post-emergence (foliage treatment) herbicidal activity, ECHCG. The test is classed as in vivo. The following applies: 63 g a.i./ha. The gist of the method: (§2)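 Each species was evaluated for growth suppression by eye, 0% matching untreated and 100% meaning death, some 20 to 23 days after a single post-emergence foliar treatment applied in 500 L/ha of water carrying 0.1% (v/v) agricultural spreader.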
Take `COc1c(Cl)cc(F)c(-c2nn(C)c(OC(F)F)c2Cl)c1NC(=O)COc1ccc(Cl)cc1` [Compound 1-35]: the “growth controlling degree, ECHCO” value is on record as 80%.

Another test deals with crabgrass (Digitaria sanguinalis L.), DIGSA. The test can be described thus: Test Example 2 post-emergence (foliage treatment) herbicidal activity, DIGSA. The following applies: 63 g a.i./ha. Type of test: in vivo. The gist of the method:
as §2
In the case of `COc1c(Cl)cc(F)c(-c2nn(C)c(OC(F)F)c2Cl)c1NC(=O)COc1ccc(Cl)cc1` [Compound 1-35], the “growth controlling degree, DIGSP” value was found to be 70%.

A further test concerns green foxtail (Setaria viridis L.), SETVI. The test can be described thus: Test Example 2 post-emergence (foliage treatment) herbicidal activity, SETVI. The test is classed as in vivo. The following applies: 63 g a.i./ha. The gist of the method:
(§3)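 A small sprayer delivered the diluted WP or EC formulation (500 L/ha water, 0.1% v/v spreader) over emerged seedlings in upland soil pots. Damage relative to untreated plants was graded visually from 0 to 100% three weeks or so later (days 20-23).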
Turning to `COc1c(Cl)cc(F)c(-c2nn(C)c(OC(F)F)c2Cl)c1NC(=O)COc1ccc(Cl)cc1` [Compound 1-35], the “growth controlling degree, SETVI” value is 95%.

The subject of another test is redroot pigweed (Amaranthus retroflexus L.), AMARE. The test can be described thus: Test Example 2 post-emergence (foliage treatment) herbicidal activity, AMARE. The following applies: 63 g a.i./ha. Type of test: in vivo. In outline:
as §2
In the case of `COc1c(Cl)cc(F)c(-c2nn(C)c(OC(F)F)c2Cl)c1NC(=O)COc1ccc(Cl)cc1` [Compound 1-35], the “growth controlling degree, AMARE” value is on record as 100%.

The subject of another test is prickly sida (Sida spinosa L.), SIDSP. The test can be described thus: Test Example 2 post-emergence (foliage treatment) herbicidal activity, SIDSP. The test is classed as in vivo. The following applies: 63 g a.i./ha. In outline:
as §3
On to `COc1c(Cl)cc(F)c(-c2nn(C)c(OC(F)F)c2Cl)c1NC(=O)COc1ccc(Cl)cc1` [Compound 1-35], for which the “growth controlling degree, SIDSP” value came to 100%.

A further test relates to velvetleaf (Abutilon theophrasti), ABUTH. The test can be described thus: Test Example 2 post-emergence (foliage treatment) herbicidal activity, ABUTH. The test is classed as in vivo. The note with it: 63 g a.i./ha. In outline:
as §3
Take `COc1c(Cl)cc(F)c(-c2nn(C)c(OC(F)F)c2Cl)c1NC(=O)COc1ccc(Cl)cc1` [Compound 1-35]: the “growth controlling degree, ABUTH” value is given as 100%.

In a further test the test system is rice (Oryza sativa L.), ORYSA. Nature of the test: Test Example 2 post-emergence (foliage treatment) herbicidal activity, ORYSA. The test is classed as in vivo. The note with it: 63 g a.i./ha. The gist of the method: as §2
`COc1c(Cl)cc(F)c(-c2nn(C)c(OC(F)F)c2Cl)c1NC(=O)COc1ccc(Cl)cc1` [Compound 1-35]: the “growth controlling degree, ORYSA” value is 60%.

For a further test, the system named is wheat (Triticum aestivum L.), TRZAX. Nature of the test: Test Example 2 post-emergence (foliage treatment) herbicidal activity, TRZAX. Type of test: in vivo. The following applies: 63 g a.i./ha. The gist of the method:
as §3
Take `COc1c(Cl)cc(F)c(-c2nn(C)c(OC(F)F)c2Cl)c1NC(=O)COc1ccc(Cl)cc1` [Compound 1-35]: the “growth controlling degree, TRZAX” value is given as 40%.

The test system of the next test is corn (Zea mays L.), ZEAMX. The test can be described thus: Test Example 2 post-emergence (foliage treatment) herbicidal activity, ZEAMX. The note with it: 63 g a.i./ha. Type of test: in vivo. The gist of the method: as §3
Regarding `COc1c(Cl)cc(F)c(-c2nn(C)c(OC(F)F)c2Cl)c1NC(=O)COc1ccc(Cl)cc1` [Compound 1-35], the “growth controlling degree, ZEAMX” value was 60%.

A further test relates to soybean (Glycine max Merr.), GLXMA. The test can be described thus: Test Example 2 post-emergence (foliage treatment) herbicidal activity, GLXMA. The note with it: 63 g a.i./ha. The test is classed as in vivo. In outline:
as §3
For `COc1c(Cl)cc(F)c(-c2nn(C)c(OC(F)F)c2Cl)c1NC(=O)COc1ccc(Cl)cc1` [Compound 1-35], the “growth controlling degree, GLXMA” value was determined as 80%.

A further test concerns barnyardgrass (Echinochiloa oryzicola: ECHOR). Nature of the test: Test Example 3 water application herbicidal activity (paddy), ECHOR. Type of test: in vivo. The note with it: 63 g a.i./ha, water application under submerged condition at 0.5 leaf stage, visually observed 14th day after application; 0 = untreated control, 100 = complete kill. In outline:
(§4)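 Submerged application in flooded paddy soil (3–4 cm water); weeds treated at 0.5-leaf stage, transplanted rice 4 d after transplanting. Scored visually as % growth control: weeds at 14 d, rice at 21 d.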
As for `COc1c(Cl)cc(F)c(-c2nn(C)c(OC(F)F)c2Cl)c1NC(=O)COc1ccc(Cl)cc1` [Compound 1-35], the “growth controlling degrees (%) ECHOR” value worked out at 100%.

The subject of the next test is japanese bulrush (Scirpus juncoides: SCPJO). The test can be described thus: Test Example 3 water application herbicidal activity (paddy), SCPJO. The test is classed as in vivo. The note with it: 63 g a.i./ha, water application under submerged condition at 0.5 leaf stage, visually observed 14th day after application; 0 = untreated control, 100 = complete kill. In outline: as §4
In the case of `COc1c(Cl)cc(F)c(-c2nn(C)c(OC(F)F)c2Cl)c1NC(=O)COc1ccc(Cl)cc1` [Compound 1-35], the “growth controlling degrees (%) SCPJO” value worked out at 70%.

The next test concerns japanese ribbon wapato (Sagittaria pygmaea: SA GPY). Nature of the test: Test Example 3 water application herbicidal activity (paddy), SAGPY. The test is classed as in vivo. The note with it: 63 g a.i./ha, water application under submerged condition, tubers planted, visually observed 14th day after application; 0 = untreated control, 100 = complete kill. The gist of the method: as §4
Take `COc1c(Cl)cc(F)c(-c2nn(C)c(OC(F)F)c2Cl)c1NC(=O)COc1ccc(Cl)cc1` [Compound 1-35]: the “growth controlling degrees (%) SAGPY” value is listed as 60%.

For the next test, the system named is rice (Oryza sativa L.: ORYSA). Nature of the test: Test Example 3 water application herbicidal activity (paddy), transplanted rice ORYSA. The test is classed as in vivo. The following applies: 63 g a.i./ha, water application 4th day after transplantation of 2 leaf stage rice, visually observed 21st day after application; 0 = untreated control, 100 = complete kill. In outline:
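Flooded paddy-soil pots in greenhouse; ECHOR and SCPJO sown, SAGPY tubers planted a day later, compound applied into 3–4 cm water at weeds' 0.5-leaf stage. Rice transplanted at 2-leaf stage, treated day 4 after transplanting. Visual growth control 0–100% at 14 days (weeds) and 21 days (rice) after application.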
`COc1c(Cl)cc(F)c(-c2nn(C)c(OC(F)F)c2Cl)c1NC(=O)COc1ccc(Cl)cc1` [Compound 1-35]: the “growth controlling degrees (%) ORYSA” value stood at 30%.
